Reference: ChEMBL document CHEMBL3885881, “DrugMatrix”

Species on record: Rattus norvegicus
Test: DrugMatrix - Regimen: Daily Repeat
Type: toxicity, organism-based, Sprague-Dawley
Set-up: regimen Daily Repeat, gender Male, age 6-8 weeks
Conditions: in vivo, po, route oral GAVAGE, […]; for ABSOLUTE BASOPHIL / ABSOLUTE EOSINOPHIL / ABSOLUTE LYMPHOCYTE / ABSOLUTE MONOCYTE / ABSOLUTE SEGMENTED NEUTROPHIL / BASOPHIL / EOSINOPHIL / ERYTHROCYTE COUNT / HEMATOCRIT / HEMOGLOBIN / LEUKOCYTE COUNT / LYMPHOCYTE / MEAN CORPUSCULAR HEMOGLOBIN / MEAN CORPUSCULAR HEMOGLOBIN CONCENTRATION / MONOCYTE / NEUTROPHIL / NUCLEATED RED BLOOD CELLS / PLATELET COUNT: tissue Blood; for ALANINE AMINOTRANSFERASE / ALBUMIN / ALKALINE PHOSPHATASE / ASPARTATE AMINOTRANSFERASE / BLOOD UREA NITROGEN / CARBON DIOXIDE / CHLORIDE / CHOLESTEROL / CREATINE PHOSPHOKINASE / CREATININE / LACTATE DEHYDROGENASE / LIPASE / PHOSPHORUS / POTASSIUM / SODIUM / TOTAL BILIRUBIN / TOTAL PROTEIN / URIC ACID: tissue Plasma
[1] = 10 mg/kg, 120 h, dose level Low, time 5 day
[2] = 1800 mg/kg, 72 h, dose level High, time 3 day
[3] = 1800 mg/kg, 120 h, dose level High, time 5 day

`CN(CCOc1ccc(CC2SC(=O)NC2=O)cc1)c1ccccn1` (stereo not drawn) [ROSIGLITAZONE] was tested, and the “ABSOLUTE BASOPHIL” value [1] was 0 CELLS/uL, the “ABSOLUTE EOSINOPHIL” value [1] was 76.67 CELLS/uL and the “ABSOLUTE LYMPHOCYTE” value [1] was 6940.67 CELLS/uL. The “ABSOLUTE MONOCYTE” value [1] was 0 CELLS/uL, the “ABSOLUTE SEGMENTED NEUTROPHIL” value [1] was 749.33 CELLS/uL and the BASOPHIL [1] was 0%. For the same compound, the EOSINOPHIL [1] was 1%, the “ERYTHROCYTE COUNT” value [1] was 4.86 x10E6/uL and the HEMATOCRIT [1] was 32.47%. The HEMOGLOBIN [1] was 12.6 G/DL, the “LEUKOCYTE COUNT” value [1] was 7.77 x10E3/uL and the LYMPHOCYTE [1] was 89.33%. For the same compound, the “MEAN CORPUSCULAR HEMOGLOBIN” value [1] was 25.9 pg, the “MEAN CORPUSCULAR HEMOGLOBIN CONCENTRATION” value [1] was 38.83 G/DL and the MONOCYTE [1] was 0%. The NEUTROPHIL [1] was 9.67%, the “NUCLEATED RED BLOOD CELLS” value [1] was 0 /100WBC and the “PLATELET COUNT” value [1] was 1021.33 x10E3/uL. The “ALANINE AMINOTRANSFERASE” value [1] was 62 u/L, the ALBUMIN [1] was 3.97 G/DL and the “ALKALINE PHOSPHATASE” value [1] was 357.67 u/L. For the same compound, the “ASPARTATE AMINOTRANSFERASE” value [1] was 91 u/L, the “BLOOD UREA NITROGEN” value [1] was 16.67 mg/dL and the “CARBON DIOXIDE” value [1] was 33.33 mmol/L. For the same compound, the CHLORIDE [1] was 101 MEQ/L, the CHOLESTEROL [1] was 67.67 mg/dL and the “CREATINE PHOSPHOKINASE” value [1] was 238 u/L. The CREATININE [1] was 0.13 mg/dL, the “LACTATE DEHYDROGENASE” value [1] was 63.33 u/L and the LIPASE [1] was 13.67 u/L. For the same compound, the PHOSPHORUS [1] was 10.13 mg/dL, the POTASSIUM [1] was 4.62 MEQ/L and the SODIUM [1] was 146.1 MEQ/L. For the same compound, the “TOTAL BILIRUBIN” value [1] was 0.0333 mg/dL, the “TOTAL PROTEIN” value [1] was 5.5 G/DL and the “URIC ACID” value [1] was 0.27 mg/dL. For the same compound, the “ABSOLUTE BASOPHIL” value [2] was 0 CELLS/uL, the “ABSOLUTE EOSINOPHIL” value [2] was 26 CELLS/uL and the “ABSOLUTE LYMPHOCYTE” value [2] was 10365.67 CELLS/uL. For the same compound, the “ABSOLUTE MONOCYTE” value [2] was 125.33 CELLS/uL, the “ABSOLUTE SEGMENTED NEUTROPHIL” value [2] was 983 CELLS/uL and the BASOPHIL [2] was 0%. The EOSINOPHIL [2] was 0.33%, the “ERYTHROCYTE COUNT” value [2] was 5.03 x10E6/uL and the HEMATOCRIT [2] was 31.87%. For the same compound, the HEMOGLOBIN [2] was 12.43 G/DL, the “LEUKOCYTE COUNT” value [2] was 11.5 x10E3/uL and the LYMPHOCYTE [2] was 90.67%. For the same compound, the “MEAN CORPUSCULAR HEMOGLOBIN” value [2] was 24.77 pg, the “MEAN CORPUSCULAR HEMOGLOBIN CONCENTRATION” value [2] was 39.03 G/DL and the MONOCYTE [2] was 0.67%. For the same compound, the NEUTROPHIL [2] was 8.33%, the “NUCLEATED RED BLOOD CELLS” value [2] was 0 /100WBC and the “PLATELET COUNT” value [2] was 1207.33 x10E3/uL. For the same compound, the “ALANINE AMINOTRANSFERASE” value [2] was 77.67 u/L, the ALBUMIN [2] was 3.97 G/DL and the “ALKALINE PHOSPHATASE” value [2] was 304.33 u/L. The “ASPARTATE AMINOTRANSFERASE” value [2] was 99.67 u/L, the “BLOOD UREA NITROGEN” value [2] was 14.67 mg/dL and the “CARBON DIOXIDE” value [2] was 29.33 mmol/L. The CHLORIDE [2] was 103 MEQ/L, the CHOLESTEROL [2] was 44.67 mg/dL and the “CREATINE PHOSPHOKINASE” value [2] was 406.67 u/L. The CREATININE [2] was 0.29 mg/dL, the “LACTATE DEHYDROGENASE” value [2] was 107.33 u/L and the LIPASE [2] was 23.33 u/L. The PHOSPHORUS [2] was 8.37 mg/dL, the POTASSIUM [2] was 4.78 MEQ/L and the SODIUM [2] was 144.7 MEQ/L. The “TOTAL BILIRUBIN” value [2] was 0.17 mg/dL, the “TOTAL PROTEIN” value [2] was 5.07 G/DL and the “URIC ACID” value [2] was 0.43 mg/dL. The “ABSOLUTE BASOPHIL” value [3] was 0 CELLS/uL, the “ABSOLUTE EOSINOPHIL” value [3] was 16.67 CELLS/uL and the “ABSOLUTE LYMPHOCYTE” value [3] was 4629 CELLS/uL. For the same compound, the “ABSOLUTE MONOCYTE” value [3] was 80.67 CELLS/uL, the “ABSOLUTE SEGMENTED NEUTROPHIL” value [3] was 707 CELLS/uL and the BASOPHIL [3] was 0%. For the same compound, the EOSINOPHIL [3] was 0.33%, the “ERYTHROCYTE COUNT” value [3] was 5.6 x10E6/uL and the HEMATOCRIT [3] was 34.33%. The HEMOGLOBIN [3] was 13.27 G/DL, the “LEUKOCYTE COUNT” value [3] was 5.43 x10E3/uL and the LYMPHOCYTE [3] was 85.33%. For the same compound, the “MEAN CORPUSCULAR HEMOGLOBIN” value [3] was 23.8 pg, the “MEAN CORPUSCULAR HEMOGLOBIN CONCENTRATION” value [3] was 38.7 G/DL and the MONOCYTE [3] was 1.33%. For the same compound, the NEUTROPHIL [3] was 13%, the “NUCLEATED RED BLOOD CELLS” value [3] was 0 /100WBC and the “PLATELET COUNT” value [3] was 1134.33 x10E3/uL. For the same compound, the “ALANINE AMINOTRANSFERASE” value [3] was 160.33 u/L, the ALBUMIN [3] was 3.97 G/DL and the “ALKALINE PHOSPHATASE” value [3] was 307 u/L. For the same compound, the “ASPARTATE AMINOTRANSFERASE” value [3] was 119 u/L, the “BLOOD UREA NITROGEN” value [3] was 16 mg/dL and the “CARBON DIOXIDE” value [3] was 26.67 mmol/L. For the same compound, the CHLORIDE [3] was 98.67 MEQ/L, the CHOLESTEROL [3] was 66.33 mg/dL and the “CREATINE PHOSPHOKINASE” value [3] was 501.67 u/L. The CREATININE [3] was 0.25 mg/dL, the “LACTATE DEHYDROGENASE” value [3] was 115 u/L and the LIPASE [3] was 9.67 u/L. For the same compound, the PHOSPHORUS [3] was 7.87 mg/dL, the POTASSIUM [3] was 4.33 MEQ/L and the SODIUM [3] was 141.6 MEQ/L. For the same compound, the “TOTAL BILIRUBIN” value [3] was 0.2 mg/dL, the “TOTAL PROTEIN” value [3] was 5.1 G/DL and the “URIC ACID” value [3] was 0.3 mg/dL.
